Experiment [1] addresses T1, Endothelin-converting enzyme 1 (Bos taurus, UniProt P42891).
T1 sequence (P42891 whole entry): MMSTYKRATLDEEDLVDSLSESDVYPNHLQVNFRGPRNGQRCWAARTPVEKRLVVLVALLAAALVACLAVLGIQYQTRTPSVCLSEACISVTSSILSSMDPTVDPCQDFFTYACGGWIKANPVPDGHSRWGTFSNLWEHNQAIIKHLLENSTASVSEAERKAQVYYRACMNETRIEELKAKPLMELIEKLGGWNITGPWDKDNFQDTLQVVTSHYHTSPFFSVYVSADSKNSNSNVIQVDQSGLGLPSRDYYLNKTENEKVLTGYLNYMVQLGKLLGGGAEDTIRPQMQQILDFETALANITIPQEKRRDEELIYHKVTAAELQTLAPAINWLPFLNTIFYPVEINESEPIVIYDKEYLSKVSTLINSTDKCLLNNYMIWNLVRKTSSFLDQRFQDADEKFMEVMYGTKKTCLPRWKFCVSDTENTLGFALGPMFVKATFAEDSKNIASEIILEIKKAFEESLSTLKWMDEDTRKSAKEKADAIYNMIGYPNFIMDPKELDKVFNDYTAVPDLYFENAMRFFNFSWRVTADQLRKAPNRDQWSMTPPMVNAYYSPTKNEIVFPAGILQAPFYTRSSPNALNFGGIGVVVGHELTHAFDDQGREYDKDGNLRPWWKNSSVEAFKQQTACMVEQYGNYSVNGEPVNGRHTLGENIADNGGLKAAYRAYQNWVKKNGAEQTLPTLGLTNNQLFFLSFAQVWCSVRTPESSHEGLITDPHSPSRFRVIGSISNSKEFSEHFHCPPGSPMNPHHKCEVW
The experiment in a line: Inhibition of Endothelin-converting enzyme (ECE) from microsomal fractions of bovine cultured endothelial cells. Format: cell-based, Endothelial cell.

For experiment [2], the target named is T2, Endothelin-converting enzyme 1 (Bos taurus) (UniProt P42891).
T2 sequence (whole entry): T1 sequence (P42891 whole entry)
The experiment in a line: Inhibitory activity against Endothelin converting enzyme (ECE) prepared from the microsomal fractions of bovine cultured endothelial cells at a concentration of 100 uM. It counts as cell-based. Conditions: Endothelial cell.

In experiment [3] the target is T3, Neprilysin (Rattus norvegicus, UniProt P07861).
T3 sequence (P07861 whole entry): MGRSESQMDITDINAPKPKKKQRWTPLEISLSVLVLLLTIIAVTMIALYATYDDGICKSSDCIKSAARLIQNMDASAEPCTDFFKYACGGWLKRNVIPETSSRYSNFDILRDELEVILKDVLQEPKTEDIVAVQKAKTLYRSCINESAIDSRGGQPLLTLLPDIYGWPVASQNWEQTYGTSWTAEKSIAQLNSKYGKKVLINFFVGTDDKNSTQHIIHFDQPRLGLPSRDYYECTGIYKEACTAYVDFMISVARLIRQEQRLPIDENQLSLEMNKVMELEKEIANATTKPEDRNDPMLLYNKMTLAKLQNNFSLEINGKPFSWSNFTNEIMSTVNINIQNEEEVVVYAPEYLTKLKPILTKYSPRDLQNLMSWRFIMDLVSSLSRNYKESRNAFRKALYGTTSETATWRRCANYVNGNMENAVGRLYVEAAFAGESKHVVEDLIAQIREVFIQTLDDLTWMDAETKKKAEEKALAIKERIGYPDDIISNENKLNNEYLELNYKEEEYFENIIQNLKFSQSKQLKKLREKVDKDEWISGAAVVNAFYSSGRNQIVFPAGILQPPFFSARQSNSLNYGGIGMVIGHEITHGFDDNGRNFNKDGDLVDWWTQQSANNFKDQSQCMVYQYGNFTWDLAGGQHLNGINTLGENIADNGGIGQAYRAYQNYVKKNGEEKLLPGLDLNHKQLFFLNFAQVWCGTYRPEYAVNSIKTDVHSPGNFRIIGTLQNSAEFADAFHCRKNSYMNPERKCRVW
The experiment in a line: Inhibitory activity against neutral endopeptidase (NEP)prepared from microsomal fractions of rat small intestine.

Experiment [4] in a line: Selectivity ratio against ECE/NEP.
Experiment [5] concerns the target T2, Endothelin-converting enzyme 1 (Bos taurus). The experiment in a line: Inhibitory activity against Endothelin-converting enzyme (ECE) prepared from the microsomal fractions of bovine cultured endothelial cells at a concentration of 100 uM. Format: cell-based. Conditions: Endothelial cell.

In general, IC50 refers to the concentration needed to halve the response being measured. Low values mean higher potency, high ones lower potency. The term inhibition denotes the drop in the measured response relative to a control, in per cent. A high value points to a response far below the control.

On to `CC(C)C[C@H](NC(CCc1cccc2ccccc12)P(=O)(O)O)C(=O)N[C@@H](Cc1c[nH]c2ccccc12)C(=O)O` (stereo partly specified), for which the IC50 in experiment [1] was determined as 260 nM; in experiment [3], 140 nM. Also, the inhibition in experiment [2] came to 31%. For the same compound, the Ratio in experiment [4] worked out at 540.

Turning to `CC(C)C[C@H](NC(CCc1c[nH]c2ccccc12)P(=O)(O)O)C(=O)N[C@@H](Cc1c[nH]c2ccccc12)C(=O)O` (stereo partly specified), the 50% inhibitory concentration (IC50) in experiment [1] amounted to 1900 nM; in experiment [3] it was 560 nM. Moreover, the Ratio in experiment [4] was 290.

`CC(C)C[C@H](NP(=O)(O)OC1O[C@@H](C)[C@H](O)[C@@H](O)[C@H]1O)C(=O)N[C@@H](Cc1c[nH]c2ccccc12)C(=O)O` (single isomer, unassigned) [PHOSPHORAMIDON]: inhibition in experiment [3] was half-maximal at 4.2 nM (IC50).

Turning to `CC(C)C[C@H](NP(=O)(O)O)C(=O)N[C@@H](Cc1cccc2ccccc12)C(=O)O`, in experiment [1], the IC50 was 7400 nM.

Turning to `CC(C)[C@H](NP(=O)(O)O)C(=O)N[C@@H](CC(N)=O)C(=O)O`, the inhibition in experiment [5] is 14%.

Take `CC(C)C[C@H](NC(CCc1ccc(O)cc1)P(=O)(O)O)C(=O)N[C@@H](Cc1c[nH]c2ccccc12)C(=O)O` (stereo partly specified): the values for the IC50 in experiment [1] and in experiment [3] were 3000 nM and 130 nM, respectively. Further, the inhibition in experiment [5] amounted to 42%. Besides, the Ratio in experiment [4] amounted to 43.

As for `CC(C)C[C@H](NCP(=O)(O)O)C(=O)N[C@@H](Cc1c[nH]c2ccccc12)C(=O)O`, the half-maximal inhibitory concentration (IC50) in experiment [1] was 3400 nM; in experiment [3], 24 nM. In addition, the Ratio in experiment [4] was found to be 7.1.

Compound `CC[C@@H](C)[C@H](NP(=O)(O)O)C(=O)N[C@@H](Cc1c[nH]c2ccccc12)C(=O)O` had an IC50 in experiment [1] of 2800 nM.

As for `CC(C)C[C@H](NC(CCc1ccccc1)P(=O)(O)O)C(=O)N[C@@H](Cc1c[nH]c2ccccc12)C(=O)O` (stereo partly specified), the IC50 in experiment [1] is 1100 nM; in experiment [3], 130 nM. In experiment [5], this compound showed an inhibition of 33%. Further, the Ratio in experiment [4] was found to be 120.

Compound `CC(C)C[C@H](NP(=O)(O)O)C(=O)N[C@@H](Cc1c[nH]c2ccccc12)C(=O)O` came in with an IC50 in experiment [1] of 960 nM.

`CCCC[C@H](NP(=O)(O)O)C(=O)N[C@@H](Cc1c[nH]c2ccccc12)C(=O)O`: the midpoint of inhibition in experiment [1], the IC50, lay at 1500 nM.

Turning to `CCCC(N[C@@H](CC(C)C)C(=O)N[C@@H](Cc1c[nH]c2ccccc12)C(=O)O)P(=O)(O)O` (stereo partly specified), the IC50 in experiment [1] is 15000 nM; in experiment [3], 550 nM. Besides, in experiment [4], the Ratio amounted to 37.

As for `CC(C)C[C@H](NC(CCCc1ccccc1)P(=O)(O)O)C(=O)N[C@@H](Cc1c[nH]c2ccccc12)C(=O)O` (stereo partly specified), the concentration for half-maximal inhibition (IC50) in experiment [1] amounted to 7100 nM; in experiment [3], 1100 nM. Moreover, in experiment [5], the inhibition turned out to be 38%. Besides, the Ratio in experiment [4] was 150.

The record behind these values is ChEMBL document CHEMBL1127889 (Bioorg Med Chem Lett, 1994).
